The values below come from patent US10385057B2, “Pyrazole compounds and methods of making and using same” (Lundbeck La Jolla Research Center, Inc., priority 2015, dated 2019).

For orientation: IC50 means the concentration at which inhibition is half-maximal. A higher IC50 goes with a need for much substance.

For one experiment, the target named is T1, FAAH (Mus musculus, UniProt O08914).
T1 construct: mouse brain membrane fraction or cell lysates for mouse assays; from tissue
T1 sequence (O08914 1-579): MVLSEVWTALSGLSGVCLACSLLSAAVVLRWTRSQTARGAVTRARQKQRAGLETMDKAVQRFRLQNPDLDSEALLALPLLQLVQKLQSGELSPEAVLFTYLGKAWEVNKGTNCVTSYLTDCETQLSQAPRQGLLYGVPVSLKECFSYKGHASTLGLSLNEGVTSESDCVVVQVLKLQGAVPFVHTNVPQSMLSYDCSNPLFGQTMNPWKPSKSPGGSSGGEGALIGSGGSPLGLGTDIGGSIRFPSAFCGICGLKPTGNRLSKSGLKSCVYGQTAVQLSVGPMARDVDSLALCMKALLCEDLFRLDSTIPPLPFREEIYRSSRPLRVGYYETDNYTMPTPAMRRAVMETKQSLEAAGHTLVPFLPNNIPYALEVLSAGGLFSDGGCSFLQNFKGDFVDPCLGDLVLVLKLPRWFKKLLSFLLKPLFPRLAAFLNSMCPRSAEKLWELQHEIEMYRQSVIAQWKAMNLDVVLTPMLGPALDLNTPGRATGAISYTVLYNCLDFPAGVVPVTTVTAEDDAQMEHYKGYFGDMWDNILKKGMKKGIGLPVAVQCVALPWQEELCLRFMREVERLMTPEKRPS
The experiment in a line: In vitro competitive activity-based protein profiling, mouse FAAH. It is filed as biochemical. Particulars: for inhibition at 1 µM: read-out: FAAH % inh. 1 μM (mouse). How it is done:
(§1) In Vitro Competitive Activity-Based Protein Profiling.
(§2) Proteomes (mouse brain membrane fraction or cell lysates for mouse assays; human prefrontal cortex or cell membrane fractions for human assays) (50 μL, 1.0 mg/mL total protein concentration) were preincubated with varying concentrations of inhibitors at 37° C. After 30 min, FP-Rh or HT-01 (1.0 μL, 50 μM in DMSO) was added and the mixture was incubated for another 30 min at 37° C. Reactions were quenched with SDS loading buffer (15 μL—4×) and run on SDS-PAGE. Following gel imaging, serine hydrolase activity was determined by measuring fluorescent intensity of gel bands corresponding to MAGL and FAAH using ImageJ 1.43u software.

A further experiment deals with T2, MAGL (Mus musculus, UniProt O35678).
T2 construct: mouse brain membrane fraction or cell lysates for mouse assays; from tissue
T2 sequence (O35678 1-303): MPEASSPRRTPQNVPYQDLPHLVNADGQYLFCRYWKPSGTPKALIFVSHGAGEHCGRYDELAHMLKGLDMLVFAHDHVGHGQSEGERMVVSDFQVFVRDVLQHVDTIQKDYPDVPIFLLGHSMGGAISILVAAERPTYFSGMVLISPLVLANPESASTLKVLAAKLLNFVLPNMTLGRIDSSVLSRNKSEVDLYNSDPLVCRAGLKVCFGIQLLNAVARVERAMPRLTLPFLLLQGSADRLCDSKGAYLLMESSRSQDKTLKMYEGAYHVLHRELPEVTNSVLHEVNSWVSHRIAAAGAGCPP
The experiment in a line: In vitro competitive activity-based protein profiling, mouse MAGL. Particulars: for inhibition at 1 µM: read-out: MAGL % inh. 1 μM (mouse). It is filed as biochemical. How it is done:
as §1, §2

Regarding `NC(=O)c1cnn(C(=O)N2CCC3(CCN(Cc4ccc(Cl)cc4)C3)C2)c1` (centres unmarked) [Example 37, 1-(7-(4-chlorobenzyl)-2,7-diazaspiro[4.4]nonane-2-carbonyl)-1H-pyrazole-4-carboxamide], the IC50 at FAAH is at most 100 nM; at MAGL it was 1000 to 10000 nM. Further, the inhibition at 1 µM on FAAH is at least 75%; at MAGL (1 μM), 50 to 75%.

In the case of `CNC(=O)c1cnn(C(=O)N2CCC3(CCN(Cc4ccc(Cl)cc4)C3)C2)c1` (centres unmarked) [Example 38, 1-(7-(4-chlorobenzyl)-2,7-diazaspiro[4.4]nonane-2-carbonyl)-N-methyl-1H-pyrazole-4-carboxamide], the IC50 lay in the range of 100 to 1000 nM on FAAH and 1000 to 10000 nM at MAGL. Moreover, the figures for the inhibition at 1 µM at FAAH and at MAGL (1 μM) were at least 75% and 0 to 25%, respectively.

As to `CNC(=O)c1cnn(C(=O)N2CCC3(CCN(Cc4cc(Cl)ccc4Cl)C3)C2)c1` (centres unmarked) [Example 40, 1-(7-(2,5-dichlorobenzyl)-2,7-diazaspiro[4.4]nonane-2-carbonyl)-N-methyl-1H-pyrazole-4-carboxamide], the inhibition at 1 µM on FAAH and on MAGL (1 μM) was at least 75% each time.

For the compound `CNC(=O)c1cnn(C(=O)N2CCC3(CCN(Cc4cccc(C(F)(F)F)c4)C3)C2)c1` (centres unmarked) [Example 42, N-methyl-1-(7-(3-(trifluoromethyl)benzyl)-2,7-diazaspiro[4.4]nonane-2-carbonyl)-1H-pyrazole-4-carboxamide], the inhibition at 1 µM on FAAH is at least 75%; on MAGL (1 μM), 0 to 25%. Besides, the inhibition at 10 µM worked out at 100% on FAAH (10 μM, read-out: FAAH % inh. at 10 μM (mouse)) and 100% at MAGL (10 μM, read-out: MAGL % inh. at 10 μM (mouse)).

As to `CNC(=O)c1cnn(C(=O)N2CCC3(CCN(Cc4cc(Cl)cc(C(F)(F)F)c4)C3)C2)c1` (centres unmarked) [Example 44, 1-(7-(3-chloro-5-(trifluoromethyl)benzyl)-2,7-diazaspiro[4.4]nonane-2-carbonyl)-N-methyl-1H-pyrazole-4-carboxamide], the inhibition at 1 µM at FAAH and on MAGL (1 μM) was at least 75% each time.

`CNC(=O)c1cnn(C(=O)N2CCC3(CCN(Cc4ccc(N5CCOCC5)cc4C(F)(F)F)C3)C2)c1` (centres unmarked) [Example 49, N-methyl-1-(7-(4-morpholino-2-(trifluoromethyl)benzyl)-2,7-diazaspiro[4.4]nonane-2-carbonyl)-1H-pyrazole-4-carboxamide]: the inhibition at 1 µM at FAAH and on MAGL (1 μM) was at least 75% each time.

For the compound `O=C(c1cnn(C(=O)N2CCC3(CCN(Cc4ccc(N5CCOCC5)cc4C(F)(F)F)C3)C2)c1)N1CCOCC1` (centres unmarked) [Example 51, (4-(morpholine-4-carbonyl)-1H-pyrazol-1-yl)(7-(4-morpholino-2-(trifluoromethyl)benzyl)-2,7-diazaspiro[4.4]nonan-2-yl)methanone], the figures for the inhibition at 1 µM at FAAH and at MAGL (1 μM) were at least 75% and 25 to 50%, respectively.

In the case of `O=C(c1cnn(C(=O)N2CCC3(CCN(Cc4ccc(N5CCOCC5)cc4C(F)(F)F)C3)C2)c1)N1CCN(C2CC2)CC1` (centres unmarked) [Example 52, (4-cyclopropylpiperazin-1-yl)(1-(7-(4-morpholino-2-(trifluoromethyl)benzyl)-2,7-diazaspiro[4.4]nonane-2-carbonyl)-1H-pyrazol-4-yl)methanone], the inhibition at 1 µM on FAAH and on MAGL (1 μM) was at least 75% throughout.

Turning to `CN(Cc1ccc(C(F)(F)F)cc1)[C@@H]1C[C@@H]2CN(C(=O)n3cc(C(=O)N4CCOCC4)cn3)C[C@@H]2C1` [Example 53, (cis-5-(methyl(4-(trifluoromethyl)benzyl)amino)hexahydrocyclopenta[c]pyrrol-2(1H)-yl)(4-(morpholine-4-carbonyl)-1H-pyrazol-1-yl)methanone], the inhibition at 1 µM at FAAH is at least 75%; at MAGL (1 μM) it was 25 to 50%.

Consider `CNC(=O)c1cnn(C(=O)N2C[C@H]3C[C@@H](N(C)Cc4ccccc4Cl)C[C@H]3C2)c1` [Example 56, 1-(trans-5-((2-chlorobenzyl)(methyl)amino)octahydrocyclopenta[c]pyrrole-2-carbonyl)-N-methyl-1H-pyrazole-4-carboxamide], for which the inhibition at 1 µM on FAAH is at least 75%. Besides, at MAGL (1 μM), the “MAGL % inh. 1 μM (mouse)” value was “C (% inhibition greater than or equal to 25% and less than 50%)”.
